Results as given in patent publication US10654851B2, “Deuterated 3-(4,5-substituted aminopyrimidine)phenyl derivatives and use thereof” (NANJING CHUANGTE PHARMACEUTICAL TECHNOLOGY CO., LTD, priority 2016, dated 2020).

Columns and labels:
[1] = target: wild type EGFR in A431 cells (Homo sapiens, UniProt P00533); experiment: EGFR wild type cell phosphorylation assay (A431)
Protocol: Test 1: EGFR Wild Type Cell Phosphorylation Assay
The human epidermoid carcinom cell line A431 expressed wild type EGFR and was purchased from the cell bank of the Chinese Academy of Sciences. A431 was maintained in an EMEM culture media containing 10% fetal bovine serum. The cells were grown at 37° C. in a humidified incubator containing 5% CO2. Endogenous p-EGFR in the cell lysate was assayed according to Phospho-EGFR HTRF kit (Cisbio, No. #64HR1PEG). Cells were plated (50000 cells/well) in a volume of 100 μL of complete media in 96-well cell culture plates and cultured at 37° C. with 5% CO2 overnight. 4-fold serial dilutions was added to the cells, the maximum concentration of the reaction being 10 μM. The cells were incubated continuously for 2 hours, 100 ng/well of EGF was added, incubated at 37° C. for 10 minutes, then the culture solution was discarded, lysis buffer (25 μL/well) was added immediately, lyse the cells at room temperature for 10 minutes, then 12 μL/well of the cell lysates were added to a Greiner white small-volume 384-well plate, detection antibodies (Anti-phospho EGFR-d2 and Anti-EGFR-Tb) were added, and the cells were incubated at 25° C. for 60 minutes. The HTRF fluorescence value was measured with CLARIOstar (BMG LABTECH) after the incubation, and IC50 was determined using GraphPad Prism 5.0.

[2] = target: T1, Exon19 deletion EGFR in HCC827 cells (Homo sapiens, UniProt P00533, DEL746-750); experiment: Exon19 deletion EGFR cell phosphorylation assay (HCC827); type: cell-based; conditions: 2 h incubation, read-out: Cell level EGFR phosphorylation IC50, HCC827 (EGFR del19)
T1 construct: Assayed the endogenous p-EGFR of the cell lysate; host or cells: HCC827
Protocol: Test 2: Exon19 Deletion EGFR (Activated Single Mutant) Cell Phosphorylation Assay
The human non-small cell lung cancer cell line HCC827 (Exon19 deletion EGFR, activated single mutant) was purchased from the cell bank of the Chinese Academy of Sciences. HCC827 was maintained in an RPMI1640 culture media containing 10% fetal bovine serum. The cells were grown at 37° C. in a humidified incubator containing 5% CO2. Assayed the endogenous p-EGFR of the cell lysate according to the Phospho-EGFR HTRF kit (Cisbio, No. #64HR1PEG). 100 μL of cells were added to a 96-well plate (50000 cells/well), and cultured overnight at 37° C. in a cell incubator with 5% CO2. 4-fold serial dilutions was added to the cells, the maximum concentration of the reaction being 10 μM. The culture solution was discarded after 2 hours' continuous incubation, lysate (25 μL/well) was added immediately, lyse the cells at room temperature for 10 minutes, then 12 μL/well of cells were added to a Greiner white small-volume 384-well plate, detection antibodies (Anti-phospho EGFR-d2 and Anti-EGFR-Tb) were added, and the cells were incubated at 25° C. for 60 minutes. The HTRF fluorescence value was measured with CLARIOstar (BMG LABTECH) after the incubation, and IC50 was determined using GraphPad Prism 5.0.

hERG potassium channels = target: T2, hERG potassium channels (Homo sapiens, UniProt Q12809); experiment: hERG potassium channel whole cell patch clamp; type: cell-based; conditions: HEK293 cells stably expressing hERG, tail current, read-out: IC50 of inhibition on hERG potassium channels at cell level
T2 construct: expressed in transfected cells; host or cells: HEK293
T2 sequence (Q12809 whole entry): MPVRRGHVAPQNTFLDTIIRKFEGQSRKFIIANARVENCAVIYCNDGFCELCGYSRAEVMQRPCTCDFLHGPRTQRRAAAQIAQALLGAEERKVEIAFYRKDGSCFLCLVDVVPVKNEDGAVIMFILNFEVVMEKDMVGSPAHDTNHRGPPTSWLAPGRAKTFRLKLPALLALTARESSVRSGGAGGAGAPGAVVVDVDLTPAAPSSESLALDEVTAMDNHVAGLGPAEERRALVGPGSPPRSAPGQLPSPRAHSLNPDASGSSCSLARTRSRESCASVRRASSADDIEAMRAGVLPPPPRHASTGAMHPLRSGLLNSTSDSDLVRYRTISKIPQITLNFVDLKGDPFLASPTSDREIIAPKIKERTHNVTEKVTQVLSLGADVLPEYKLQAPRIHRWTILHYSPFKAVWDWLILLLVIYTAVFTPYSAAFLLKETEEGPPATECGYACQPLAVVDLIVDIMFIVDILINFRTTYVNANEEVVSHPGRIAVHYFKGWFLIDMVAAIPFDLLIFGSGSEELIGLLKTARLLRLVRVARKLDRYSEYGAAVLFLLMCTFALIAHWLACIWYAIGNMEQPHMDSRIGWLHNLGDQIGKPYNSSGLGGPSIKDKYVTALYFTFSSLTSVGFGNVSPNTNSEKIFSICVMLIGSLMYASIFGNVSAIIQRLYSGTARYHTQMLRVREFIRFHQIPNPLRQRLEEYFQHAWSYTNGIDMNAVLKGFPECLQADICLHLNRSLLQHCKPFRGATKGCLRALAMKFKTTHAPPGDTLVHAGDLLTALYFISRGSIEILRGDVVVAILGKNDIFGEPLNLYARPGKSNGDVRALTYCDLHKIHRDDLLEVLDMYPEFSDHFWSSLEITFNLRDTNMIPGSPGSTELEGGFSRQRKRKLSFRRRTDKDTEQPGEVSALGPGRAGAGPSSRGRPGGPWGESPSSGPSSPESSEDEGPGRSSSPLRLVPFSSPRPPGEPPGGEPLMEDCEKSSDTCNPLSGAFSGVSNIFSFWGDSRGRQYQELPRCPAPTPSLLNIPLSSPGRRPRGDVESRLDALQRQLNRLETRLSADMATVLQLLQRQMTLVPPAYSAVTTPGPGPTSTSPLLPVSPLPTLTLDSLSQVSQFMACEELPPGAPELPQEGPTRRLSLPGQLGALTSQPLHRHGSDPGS
Protocol: 3) Assay on the Effects of the Compounds on hERG Potassium Channels
HEK293 cells stably expressing an hERG channel were cultured in 35 mm culture dishes and placed in a 37° C./5% CO2 incubator for at least 24 hours before the experiment. The cell culture medium was DMEM containing 10% fetal bovine serum and 250 μg/mL G418.
The ingredients of the extracellular fluid used in the whole cell patch clamp experiment were (mM): NaCl, 137; KCl, 4; CaCl2, 1.8; MgCl2, 1; HEPES, 10; glucose 10; pH 7.4 (NaOH titration). All tested compounds and control compound solutions contained 0.3% DMSO. The intracellular fluid (mM) was: K Aspartate, 130; MgCl2, 5; EGTA 5; HEPES, 10; Tris-ATP 4; pH 7.2 (KOH titration).
One dish was taken out for each experiment, washed twice with the extracellular fluid, and placed on an inverted microscope stage. The whole cell patch clamp experiment was performed at room temperature with a tip resistance of 3 to 5 MΩ for a borosilicate glass microelectrode. After the whole cell recording mode, the membrane potential was clamped at −80 mV, gave a +50 mV depolarization voltage stimulation to the cells every 30 s and then repolarized to −50 mV for 3 s after 2 s to elicit hERG tail current. The cells were given a −50 mV repolarization voltage for 50 ms before the depolarization voltage stimulation, and the current recorded under this voltage was used as a baseline for calculating the hERG tail current. The hERG tail current was stably recorded for at least 3 minutes in the extracellular fluid before the addition of the compound. When the amplitude change of the hERG tail current was less than 5% after perfusion administration, it was considered that the drug action reached a steady state. Data was acquired and analyzed by a pCLAMP 10.1 software program. […] The inhibition rate of the tested compound to the hERG current was calculated according to the following equation: % inhibition rate={1−(remaining current amplitude)/(control current amplitude)}×100 […]

[3] = target: EGFR (L858R) single mutant (Homo sapiens, UniProt P00533, L858R); experiment: HTRF kinase activity assay, EGFR (L858R) single mutant
Chain of EGFR (L858R) single mutant (P00533 25-1210 L858R): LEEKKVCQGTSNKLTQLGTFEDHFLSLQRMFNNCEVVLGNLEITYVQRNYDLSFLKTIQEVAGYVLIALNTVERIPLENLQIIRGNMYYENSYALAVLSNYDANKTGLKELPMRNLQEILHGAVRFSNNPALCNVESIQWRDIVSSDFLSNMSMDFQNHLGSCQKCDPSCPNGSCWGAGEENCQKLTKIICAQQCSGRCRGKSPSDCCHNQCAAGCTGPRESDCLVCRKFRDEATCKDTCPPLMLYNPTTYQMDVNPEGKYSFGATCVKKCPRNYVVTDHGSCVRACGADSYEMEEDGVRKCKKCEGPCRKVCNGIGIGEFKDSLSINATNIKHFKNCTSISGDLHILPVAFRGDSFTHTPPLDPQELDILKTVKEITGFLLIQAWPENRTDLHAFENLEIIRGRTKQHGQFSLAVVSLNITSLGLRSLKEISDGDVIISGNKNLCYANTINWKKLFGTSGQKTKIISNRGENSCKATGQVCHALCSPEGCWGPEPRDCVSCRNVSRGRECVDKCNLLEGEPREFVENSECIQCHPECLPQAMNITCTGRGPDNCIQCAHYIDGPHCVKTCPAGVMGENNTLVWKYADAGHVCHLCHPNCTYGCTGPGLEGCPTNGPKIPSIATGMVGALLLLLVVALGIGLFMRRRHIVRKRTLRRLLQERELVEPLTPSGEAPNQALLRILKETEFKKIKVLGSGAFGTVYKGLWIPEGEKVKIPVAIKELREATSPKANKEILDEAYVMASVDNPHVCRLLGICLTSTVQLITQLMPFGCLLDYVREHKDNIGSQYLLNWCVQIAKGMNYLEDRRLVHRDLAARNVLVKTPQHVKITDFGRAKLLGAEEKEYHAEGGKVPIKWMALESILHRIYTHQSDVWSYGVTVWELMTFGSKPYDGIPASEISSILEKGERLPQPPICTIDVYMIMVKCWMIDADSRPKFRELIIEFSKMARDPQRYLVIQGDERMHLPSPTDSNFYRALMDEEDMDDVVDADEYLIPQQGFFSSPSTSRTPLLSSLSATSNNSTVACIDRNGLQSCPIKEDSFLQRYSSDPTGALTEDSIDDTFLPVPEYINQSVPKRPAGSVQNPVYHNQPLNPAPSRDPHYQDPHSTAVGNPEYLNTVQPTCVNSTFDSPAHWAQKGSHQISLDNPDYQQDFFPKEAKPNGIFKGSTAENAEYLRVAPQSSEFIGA
Protocol: (§1) The above kinases were purchased from Invitrogen Corporation Shanghai Representative Office.
(§2) The reaction concentration of the compounds was three times diluted from 1000 nM for 9 concentrations. The concentration of DMSO in the reaction system was 2%. The enzyme and the compound were pre-incubated for 15 minutes, and then ATP and substrate were added to initiate the reaction. All enzyme catalyzed reactions were carried out at 25° C. for 60 minutes. […] Measure the HTRF fluorescence value with CLARIOstar (BMG LABTECH) after the incubation, and IC50 was determined using GraphPad Prism 5.0.

EGFR wild type = target: T3, EGFR wild type (Homo sapiens, UniProt P00533); experiment: HTRF kinase activity assay, EGFR wild type; type: biochemical; conditions: 10 μM ATP, read-out: In vitro enzymatic activity IC50, EGFR
T3 construct: purchased Invitrogen Corporation Shanghai Representative Office
T3 sequence (P00533 25-1210): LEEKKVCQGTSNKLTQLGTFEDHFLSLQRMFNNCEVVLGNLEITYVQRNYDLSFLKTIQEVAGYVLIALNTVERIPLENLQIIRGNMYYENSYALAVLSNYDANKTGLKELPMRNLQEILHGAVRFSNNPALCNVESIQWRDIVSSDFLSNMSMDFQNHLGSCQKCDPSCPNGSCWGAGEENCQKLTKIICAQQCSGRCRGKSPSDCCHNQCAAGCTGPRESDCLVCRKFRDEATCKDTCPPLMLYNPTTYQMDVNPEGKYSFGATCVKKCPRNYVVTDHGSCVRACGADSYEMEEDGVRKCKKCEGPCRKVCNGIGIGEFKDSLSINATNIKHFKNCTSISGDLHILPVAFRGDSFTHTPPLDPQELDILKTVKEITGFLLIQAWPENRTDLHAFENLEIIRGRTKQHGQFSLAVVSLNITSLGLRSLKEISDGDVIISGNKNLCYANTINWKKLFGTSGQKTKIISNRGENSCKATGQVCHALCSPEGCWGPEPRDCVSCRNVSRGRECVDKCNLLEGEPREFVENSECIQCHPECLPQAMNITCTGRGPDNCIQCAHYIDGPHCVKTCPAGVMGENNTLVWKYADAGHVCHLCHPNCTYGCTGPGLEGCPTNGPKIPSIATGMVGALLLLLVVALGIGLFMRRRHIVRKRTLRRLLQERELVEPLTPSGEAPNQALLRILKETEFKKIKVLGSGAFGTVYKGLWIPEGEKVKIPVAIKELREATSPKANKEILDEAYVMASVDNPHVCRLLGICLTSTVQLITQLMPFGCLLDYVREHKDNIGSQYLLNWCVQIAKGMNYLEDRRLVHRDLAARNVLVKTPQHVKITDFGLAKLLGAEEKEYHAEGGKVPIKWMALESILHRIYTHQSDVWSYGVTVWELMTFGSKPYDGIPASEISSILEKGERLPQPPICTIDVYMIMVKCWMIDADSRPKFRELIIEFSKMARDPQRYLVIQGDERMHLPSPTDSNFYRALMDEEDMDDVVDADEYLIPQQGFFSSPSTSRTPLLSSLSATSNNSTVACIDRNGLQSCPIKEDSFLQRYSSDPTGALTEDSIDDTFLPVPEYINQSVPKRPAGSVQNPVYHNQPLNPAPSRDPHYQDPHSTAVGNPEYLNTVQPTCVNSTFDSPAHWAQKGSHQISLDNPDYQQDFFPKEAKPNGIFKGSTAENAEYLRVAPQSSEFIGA
Protocol: as §1, §2

Chain of wild type EGFR in A431 cells (P00533 25-1210): as above

Row | SMILES | IC50 [1] [nM] | IC50 [2] [nM] | IC50 (hERG potassium channels) [nM] | IC50 [3] [nM] | IC50 (EGFR wild type) [nM]
1 | [2H]C([2H])([2H])N(C)CCN(C)c1cc(OC)c(Nc2nccc(-c3cn4c5c(cccc35)CCC4)n2)cc1NC(=O)C=C [Compound 11] | 730 | 101 | 1850 | 11.5 | 38
2 | [2H]C([2H])([2H])N(CCN(C)c1cc(OC)c(Nc2nccc(-c3cn4c5c(cccc35)CCC4)n2)cc1NC(=O)C=C)C([2H])([2H])[2H] [Compound 16] | 732 | 103 | 2670 | 11.6 | 27
3 | [2H]C([2H])([2H])N(CCN(C)C)c1cc(OC)c(Nc2nccc(-c3cn4c5c(cccc35)CCC4)n2)cc1NC(=O)C=C [Compound 24] | 520 | 78.1 | 1970 | 8.99 | 15.7
4 | [2H]C([2H])([2H])NCCN(C)c1cc(OC)c(Nc2nccc(-c3cn4c5c(cccc35)CCC4)n2)cc1NC(=O)C=C [Compound 34] |  |  |  | 14.1 | 35.4
